Measured values taken from US20200079757A1, “COMPOUNDS FOR THE TREATMENT OF RESPIRATORY DISEASES” (THE UNIVERSITY OF MELBOURNE, priority 2017, published 2020).

Columns and labels:
[1] = tested on: TNF-stimulated BEAS-2B cells; test: TNF-α-induced IL-8 and CSF-2 (GM-CSF) mRNA and supernatant protein in BEAS-2B cells (RT-qPCR, ELISA); assay type: cell-based; conditions: 1-10 μM 30 min prior to TNF-α 10 ng/ml 24 h, maximal at lowest concentration
Method: The primary assay for the activity of the novel CK1δ/ε inhibitors is the modulation of gene expression in the airway epithelial cell line, the BEAS-2B cells. The assay is conducted under several conditions. Generally, TGF-β or TNF-α is used to elicit fibrogenic or inflammatory genes, respectively. The agents are added at a concentration of 10 μM, or at the indicated concentrations for a period of 30 min prior to the addition of TGF-β/TNF-α which are incubated for a further 20 hours before the addition, in some experiments of the glucocorticoid, dexamethasone (Dex, 30 nM) for the final 4 hours of the experiment, prior to harvest of cellular RNA to measure by RT-qPCR the levels of mRNA of marker genes for inflammation and fibrogenesis. The inhaled corticosteroid (ICS), budesonide is also used in some experiments. Furthermore, the supernatants are harvested at the end of the incubation periods in selected experiments to measure the levels of CSF-2 or IL-8 by ELISA as described in (Tran et al. (2005) British Journal of Pharmacology, 145, 123-131). […] The threshold cycle (CT) values determined for target genes were normalized against those obtained for 18S ribosomal RNA (18S rRNA), which was included as internal control. […] RNA was extracted and measured by RT-qPCR. Pro-inflammatory cytokines in the supernatants were measured by ELISA. […]

TGFβ-activated A549 = TGFβ-activated A549 gene expression (modulation of mRNA level, RT-qPCR); assay type: cell-based; conditions: for CTGF expression / PAI-1 expression / TGF-β-induced suppression of E-cadherin: A549, 0.1-10 μM prior to TGF-β (100 pM) 24 hr; for IC50: Homo sapiens, read-out: -Log IC50 ± SEM (modulation of mRNA level), N-Cadherin induction (converted)
[2] = tested on: Bleomycin Model of Pulmonary Fibrosis; test: Bleomycin model of pulmonary fibrosis: BAL protein, BAL cells, lung gene expression; assay type: in vivo, mouse; conditions: female C57BI/6 mice; for bleomycin-induced BAL cell number / bleomycin-induced BAL protein: day −1 to 3
Method: All animal experiments were carried out in accordance with ethical guidelines from the University of Melbourne Animal Ethics Committee (AEEC #1513736.1). Six- to 8-week old 20-25 g C57BI/6 mice (ARC, Perth, Australia) received treatment with 35 μL of saline or bleomycin (105 mU per mouse) on day 0 through intranasal administration, as previously described (Langenbach et al., (2007). Can J Physiol Pharmacol, 85, 727-738). Acute and chronic bleomycin mouse models were used to assess the effect of SS9-010 on pulmonary fibrosis in vivo. SS9-010 was administered systemically through intraperitoneal injection or locally to the lungs through inhalation of an aerosol generated using an oxygen concentrator connected to a hudson nebuliser operating at 5 L/min for 15 minutes. […] Mice were allowed food and water ad libitum for the duration of all studies. At the end of each study, bronchoalveolar lavage (BAL) was performed from which leukocyte cell types were enumerated and acelluar protein content was determined as previously described (Langenbach, et al., 2007), lungs were dissected and snap frozen. Gene expression were determined from pulverised frozen lung tissue. Total protein content in acellular BAL fluid was assessed using the BioRad protein assay method. BAL cells in BAL fluid were stained with Erythrosin B (EB) and counted manually with the aid of a hemocytometer. Total BAL cell number was calculated by accounting for the return volume of BAL fluid. The effects of inhaled SS9-010 on bleomycin-induced BAL protein leakage, BAL cell recruitment, lung weight, as well as lung fibrogenic gene expression in mouse lungs are shown in FIG. 9. Female C57BI/6 mice received a transnasal dose of bleomycin or saline on day 0. SS9-010 was administered day −1 to day 3 by daily inhalation of aerosol generated by nebulizing from a concentration of 1 mg/mL for a period of 15 min once daily. Bronchoalveolar lavage (BAL) protein and BAL cell number were assessed. Lung fibrogenic gene expression was also assessed on day 3. Data are presented as mean±SEM (n=6). […] The effects of intraperitoneal injection of SS9-010 on bleomycin-induced BAL protein leakage, BAL cell recruitment, and lung fibrogenic gene expression in mouse lungs are shown in FIG. 10. Female C57BI/6 mice were […] administered bleomycin or saline on day 0. SS9-010 (3 or 10 mg/kg/day, ip) was administered from day −1 to 3. […] Lung fibrogenic gene expression was also assessed on day 3. Data are presented as mean±SEM (n=4 sal, n=5 other groups). Systemic SS9-010 (3 or 10 mg/kg/day, ip) had no effect on BAL protein or BAL cell number. Induction of IL-6 was reduced by SS9-010 treatment, whereas arginase-1 was not.

[3] = tested on: ovalbumin (OVA)-sensitized BALB/c mice; test: Airway hyper-responsiveness to methacholine in acute ovalbumin-induced asthma model; assay type: in vivo, mouse; conditions: inhaled, estimated deposited dose 1 μg, day 21 to 28
[4] = A549, agent 0.1-10 μM before TGF-β (100 pM) 24 hr
[5] = inhaled aerosol 1 mg/mL 15 min once daily

-Log IC50 ± SEM (modulation of mRNA level), Vimentin induction (TGFβ-activated A549; [4])	IC50 (TGFβ-activated A549; [4])	Compound	TNF-α-induced IL-8 expression and immunoreactive IL-8 in supernatant [1]	CTGF expression (TGFβ-activated A549)	PAI-1 expression (TGFβ-activated A549)	TGF-β-induced suppression of E-cadherin (TGFβ-activated A549)	induction of IL-6 (lung gene expression) ([2]; 3 or 10 mg/kg/day ip, day 3)	bleomycin-induced BAL cell number ([2]; 3 or 10 mg/kg/day ip)	bleomycin-induced BAL protein ([2]; 3 or 10 mg/kg/day ip)	bleomycin-induced BAL cell number [2, 5]	bleomycin-induced BAL protein [2, 5]	lung fibrogenic gene expression ([2]; inhaled aerosol 1 mg/mL 15 min once daily, day −1 to 3, assessed day 3)	OVA-induced increase in central airway resistance (Rn) to methacholine [3]	OVA-induced increase in elastance to methacholine [3]	compliance changes, OVA/SS9-010 compared to OVA alone [3]
Inactive	4.47 µM	Cl.Nc1nccc(-c2c(-c3ccc(F)cc3)ncn2C2CCCCC2)n1 [PF670462, 4-(1-Cyclohexyl-4-(4-fluorophenyl)-1H-imidazol-5-yl)pyrimidin-2-amine hydrochloride, reference compound]	active inhibitors	concentration-dependently inhibited	concentration-dependently inhibited	restored									
	2 µM	CNc1nccc(-c2c(-c3ccc(F)cc3)ncn2C2CCCCC2)n1 [SS9-010, 4-(1-Cyclohexyl-4-(4-fluorophenyl)-1H-imidazol-5-yl)-N-methylpyrimidin-2-amine]	active inhibitors	concentration-dependently inhibited	concentration-dependently inhibited	restored	reduced	no effect	no effect	modest suppression	showed an effect	showed an effect	attenuated	attenuated	No significant difference
